Calls of active or inactive are those of the source. The calls are words filed in the database; no cut-off is given here.
Key:
[1] = system: MDA-MB-231; assay: Cytotoxicity against human MDA-MB-231 cells assessed as reduction in cell viability after 72 hrs by CyQuant dye-based assay; format: functional
[2] = system: NIH3T3; assay: Cytotoxicity against mouse NIH/3T3 cells assessed as reduction in cell viability after 72 hrs by CyQuant dye-based assay
[3] = system: U-251; assay: Cytotoxicity against human U251MG cells assessed as reduction in cell viability after 72 hrs by CyQuant dye-based assay; format: functional
[4] = molecular target: Signal transducer and activator of transcription 3 (Homo sapiens) (UniProt P40763); assay: Inhibition of STAT3 activity in human U251MG cells assessed as downregulation of STAT3 phosphorylation at Tyr705 residue at 5 uM up to 24 hrs by Western blot analysis; format: cell-based
[5] = system: U-251; assay: Antimigratory activity in human U251MG cells at 2.5 to 5.0 uM after 18 hrs by inverted fluorescence microscopic method-based wound-healing assay; format: functional, cell-based
[6] = molecular target: Signal transducer and activator of transcription 3 (Homo sapiens) (UniProt P40763); assay: Inhibition of STAT3 DNA binding activity in human U251MG nuclear extract at 5 uM preincubated for 30 mins followed by addition of [32P]hSIE measured up to 24 hrs by electrophoretic mobility shift assay
[7] = Homo sapiens, U-251, 72 h, read-out: IC50

Signal transducer and activator of transcription 3 (Homo sapiens), sequence (P40763 whole entry): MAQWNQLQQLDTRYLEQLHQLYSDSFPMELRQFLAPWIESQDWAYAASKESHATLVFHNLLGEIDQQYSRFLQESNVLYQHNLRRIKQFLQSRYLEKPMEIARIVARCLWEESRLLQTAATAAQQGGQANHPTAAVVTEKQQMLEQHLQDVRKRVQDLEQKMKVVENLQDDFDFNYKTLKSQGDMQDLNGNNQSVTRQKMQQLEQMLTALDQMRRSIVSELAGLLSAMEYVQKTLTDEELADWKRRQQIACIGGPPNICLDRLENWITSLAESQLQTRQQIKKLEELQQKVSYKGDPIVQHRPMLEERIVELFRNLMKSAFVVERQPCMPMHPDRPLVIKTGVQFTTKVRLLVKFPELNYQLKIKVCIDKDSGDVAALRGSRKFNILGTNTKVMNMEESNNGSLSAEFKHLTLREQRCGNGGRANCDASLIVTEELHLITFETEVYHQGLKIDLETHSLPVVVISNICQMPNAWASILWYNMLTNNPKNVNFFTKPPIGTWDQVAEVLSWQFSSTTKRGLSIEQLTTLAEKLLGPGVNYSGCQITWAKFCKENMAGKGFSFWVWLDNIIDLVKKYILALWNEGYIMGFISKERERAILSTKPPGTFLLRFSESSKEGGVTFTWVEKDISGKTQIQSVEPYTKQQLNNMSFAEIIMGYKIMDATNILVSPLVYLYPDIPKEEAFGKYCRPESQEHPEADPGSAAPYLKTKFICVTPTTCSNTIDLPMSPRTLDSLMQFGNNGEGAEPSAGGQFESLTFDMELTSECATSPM

inhibition [4] | inhibition [6] | SMILES | IC50 [1] | IC50 [2] | IC50 [3, 7] [µM] | Activity [5] | IC50 ([3]; u-251)
 |  | C=C(C)C(CC=C(C)C)C[C@@]12C[C@@H](CC=C(C)C)C(C)(C)[C@@](CC=C(C)C)(C(=O)C(C(=O)c3cccc(O)c3)=C1O)C2=O (some centres undefined) | Not Active | Non-Toxic | 1.3 |  | 
Active |  | C=C(C)CC[C@H](C[C@]12C[C@H](CC=C(C)C)C(C)(C)[C@](CC=C(C)C)(C(=O)C(C(=O)c3ccc(O)c(O)c3)=C1O)C2=O)C(=C)C |  |  |  |  | 
 |  | CC(C)=CC[C@H]1C[C@@]23C[C@@H](CC=C(C)C)C(C)(C)[C@@](CC=C(C)C)(C(=O)C(C(=O)c4ccc(O)c(O)c4)=C2OC1(C)C)C3=O [CAMBOGIN] | Not Active | Non-Toxic | 2.8 |  | 
 |  | C=C(C)CC[C@H]1C[C@]23C[C@H](CC=C(C)C)C(C)(C)[C@](CC=C(C)C)(C2=O)c2oc4cc(O)c(O)cc4c(=O)c2[C@]3(O)CC1=C | Not Active | Non-Toxic | 3.5 |  | 
 |  | CC(C)=CC[C@H]1C[C@]23C[C@@H]4CC=C(C)C[C@]4(C)C[C@@]2(O)c2c(oc4cc(O)c(O)cc4c2=O)[C@@](CC=C(C)C)(C3=O)C1(C)C | Not Active | Non-Toxic | 1.8 |  | 
 | Active | C=C(C)[C@H]1C[C@@]23C[C@@H](CC=C(C)C)C(C)(C)[C@@](CC=C(C)C)(C(=O)C(C(=O)c4ccc(O)c(O)c4)=C2O[C@@H]1C=C(C)C)C3=O | Not Active | Non-Toxic | 3.7 | Active | 
 |  | CC(C)=CC[C@@H]1C[C@]23C[C@H](CC=C(C)C)C(C)(C)[C@](CC=C(C)C)(C(=O)C(C(=O)c4ccc(O)c(O)c4)=C2OC1(C)C)C3=O [ISOXANTHOCHYMOL] | Not Active | Non-Toxic | 6 |  | 
 |  | C=C(C)CCC(CC12CC3C(C=C(C)C)C(C(=O)c4ccc(O)c(O)c4)(CC(CC=C(C)C)(C1=O)C3(C)C)C2=O)C(=C)C (centres undefined) | Not Active | Non-Toxic |  |  | Not Active

From ChEMBL document CHEMBL4052778, “Bioactive polyprenylated benzophenone derivatives from the fruits extracts of Garcinia xanthochymus” (Bioorg Med Chem Lett, 2017)
